Counter-ions that a name gives are not always drawn.
Assays:
Assay type in all cases: biochemical
BTK-WT = biological target: T1, BTK-WT (Homo sapiens, UniProt Q06187); assay: Btk in vitro inhibitory activity (one of Method A TR-FRET, Method B electrophoretic mobility shift, Method C radiometric filter binding); settings: Table 10, Formula A-I; read-out: BTK-WT (IC50)
T1 construct: purified from insect cells as a full-length construct containing an N-terminal 6X-His tag; His6 (N); made in house; host or cells: insect cells (baculovirus Sf21 in Method B)
T1 sequence (Q06187 whole entry): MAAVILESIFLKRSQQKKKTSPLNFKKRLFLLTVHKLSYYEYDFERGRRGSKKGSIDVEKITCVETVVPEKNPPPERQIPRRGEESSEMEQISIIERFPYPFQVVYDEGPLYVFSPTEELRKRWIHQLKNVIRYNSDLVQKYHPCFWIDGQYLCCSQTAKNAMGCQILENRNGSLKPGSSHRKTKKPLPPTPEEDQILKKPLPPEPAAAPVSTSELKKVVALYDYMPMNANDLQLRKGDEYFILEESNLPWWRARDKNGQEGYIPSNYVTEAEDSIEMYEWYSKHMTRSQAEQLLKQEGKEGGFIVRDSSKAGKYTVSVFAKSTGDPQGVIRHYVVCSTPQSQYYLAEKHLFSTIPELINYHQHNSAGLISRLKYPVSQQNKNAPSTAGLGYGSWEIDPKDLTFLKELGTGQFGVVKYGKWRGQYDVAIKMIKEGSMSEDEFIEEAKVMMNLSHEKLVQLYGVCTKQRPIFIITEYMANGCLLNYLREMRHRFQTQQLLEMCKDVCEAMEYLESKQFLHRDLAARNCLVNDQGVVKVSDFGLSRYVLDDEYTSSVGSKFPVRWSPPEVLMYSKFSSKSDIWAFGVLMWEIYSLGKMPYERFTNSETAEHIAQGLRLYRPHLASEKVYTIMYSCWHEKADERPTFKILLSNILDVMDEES

JAK3 = biological target: T2, JAK3 (Homo sapiens, UniProt P52333); assay: Inhibition of a panel of kinases, in vitro HotSpot kinase assay: JAK3; settings: Table 10, Formula A-I; 1 μM ATP; read-out: JAK3 (IC50)
T2 sequence (P52333 1-1124): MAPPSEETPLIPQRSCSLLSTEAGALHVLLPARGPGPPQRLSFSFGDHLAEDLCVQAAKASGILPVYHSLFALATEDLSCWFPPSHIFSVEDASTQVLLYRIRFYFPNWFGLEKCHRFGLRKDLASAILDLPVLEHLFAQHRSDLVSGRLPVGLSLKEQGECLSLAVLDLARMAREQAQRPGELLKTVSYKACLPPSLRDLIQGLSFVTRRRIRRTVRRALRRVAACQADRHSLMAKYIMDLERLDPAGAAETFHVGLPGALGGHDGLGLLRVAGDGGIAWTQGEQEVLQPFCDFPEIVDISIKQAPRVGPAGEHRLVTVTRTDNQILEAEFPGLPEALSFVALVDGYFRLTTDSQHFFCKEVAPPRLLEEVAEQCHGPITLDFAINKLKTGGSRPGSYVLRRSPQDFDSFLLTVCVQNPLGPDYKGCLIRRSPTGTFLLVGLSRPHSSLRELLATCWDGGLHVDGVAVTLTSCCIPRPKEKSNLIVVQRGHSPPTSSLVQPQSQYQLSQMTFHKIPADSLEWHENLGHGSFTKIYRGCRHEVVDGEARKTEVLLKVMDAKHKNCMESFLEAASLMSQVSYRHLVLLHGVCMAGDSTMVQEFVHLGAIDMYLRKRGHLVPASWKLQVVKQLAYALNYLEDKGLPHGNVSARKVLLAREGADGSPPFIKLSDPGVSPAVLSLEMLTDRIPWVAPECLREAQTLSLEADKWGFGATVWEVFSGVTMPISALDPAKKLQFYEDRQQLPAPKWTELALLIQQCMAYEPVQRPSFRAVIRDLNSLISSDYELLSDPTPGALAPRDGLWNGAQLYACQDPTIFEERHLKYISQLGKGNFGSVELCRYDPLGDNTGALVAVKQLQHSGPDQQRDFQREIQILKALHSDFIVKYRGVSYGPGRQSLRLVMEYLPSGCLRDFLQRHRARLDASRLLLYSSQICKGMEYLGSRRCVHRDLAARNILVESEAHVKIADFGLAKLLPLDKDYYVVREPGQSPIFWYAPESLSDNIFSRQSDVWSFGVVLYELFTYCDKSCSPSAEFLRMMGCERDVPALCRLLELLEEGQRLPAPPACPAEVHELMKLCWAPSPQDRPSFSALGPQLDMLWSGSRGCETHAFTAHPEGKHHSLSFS

LCK = LCK (Homo sapiens, UniProt P06239); assay: Inhibition of a panel of kinases, in vitro HotSpot kinase assay: LCK; settings: Table 10, Formula A-I; 1 μM ATP; read-out: LCK (IC50)
LCK, sequence (P06239 whole entry): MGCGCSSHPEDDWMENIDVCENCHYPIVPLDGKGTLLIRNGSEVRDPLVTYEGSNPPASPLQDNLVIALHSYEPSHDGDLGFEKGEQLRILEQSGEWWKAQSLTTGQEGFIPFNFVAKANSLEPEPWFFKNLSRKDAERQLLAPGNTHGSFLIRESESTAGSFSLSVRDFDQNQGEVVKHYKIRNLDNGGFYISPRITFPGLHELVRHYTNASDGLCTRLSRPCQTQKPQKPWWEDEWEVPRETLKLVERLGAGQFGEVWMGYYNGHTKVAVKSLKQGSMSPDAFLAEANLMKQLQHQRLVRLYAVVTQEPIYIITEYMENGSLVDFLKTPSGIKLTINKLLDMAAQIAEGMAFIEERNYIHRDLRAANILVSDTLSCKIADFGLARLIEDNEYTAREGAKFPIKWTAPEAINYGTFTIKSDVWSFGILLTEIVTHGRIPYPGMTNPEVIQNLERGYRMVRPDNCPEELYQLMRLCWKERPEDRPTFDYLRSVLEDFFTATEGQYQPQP

| Compound | IC50 (BTK-WT) | IC50 (JAK3) | IC50 (LCK) |
| --- | --- | --- | --- |
| Cc1cc(Nc2nc(N3CCC[C@@H](NC(=O)c4cccc(N(C)C)c4)C3)cnc2C(N)=O)sn1 [Example A-27, (5-[(3R)-3-[3-(dimethylamino)benzamido]piperidin-1-yl]-3-[(3-methyl-1,2-thiazol-5-yl)amino]pyrazine-2-carboxamide hydrochloride] | ≤ 100 nM | 1000 to 10000 nM | 100 to 1000 nM |
| Cc1cc(Nc2nc(N3CCC[C@@H](NC(=O)C4CCCCC4)C3)cnc2C(N)=O)sn1 [Example A-28, 5-[(3R)-3-cyclohexaneamidopiperidin-1-yl]-3-[(3-methyl-1,2-thiazol-5-yl)amino]pyrazine-2-carboxamide] | ≤ 100 nM | 1000 to 10000 nM | 100 to 1000 nM |
| Cc1cc(Nc2nc(N3CCC[C@@H](NC(=O)c4ccncc4)C3)cnc2C(N)=O)sn1 [Example A-29, 3-[(3-methyl-1,2-thiazol-5-yl)amino]-5-[(3R)-3-(pyridine-4-amido)piperidin-1-yl]pyrazine-2-carboxamide] | ≤ 100 nM | 100 to 1000 nM | 1000 to 10000 nM |
| Cc1cc(Nc2nc(N3CCC[C@@H](NC(=O)c4ccc(C(C)C)cc4)C3)cnc2C(N)=O)sn1 [Example A-30, 3-[(3-methyl-1,2-thiazol-5-yl)amino]-5-[(3R)-3-[4-(propan-2-yl)benzamido]piperidin-1-yl]pyrazine-2-carboxamide] | ≤ 100 nM | 1000 to 10000 nM | > 10000 nM |
| CCn1ccc2cc(C(=O)N[C@@H]3CCCN(c4cnc(C(N)=O)c(Nc5cc(C)ns5)n4)C3)ccc21 [Example A-31, N-[(3R)-1-{5-carbamoyl-6-[(3-methyl-1,2-thiazol-5-yl)amino]pyrazin-2-yl}piperidin-3-yl]-1-ethyl-1H-indole-5-carboxamide] | ≤ 100 nM | 100 to 1000 nM | 100 to 1000 nM |
| Cc1cc(Nc2nc(N3CCC[C@@H](NC(=O)c4ccc(C5CC5)cc4)C3)cnc2C(N)=O)sn1 [Example A-32, 5-[(3R)-3-(4-cyclopropylbenzamido)piperidin-1-yl]-3-[(3-methyl-1,2-thiazol-5-yl)amino]pyrazine-2-carboxamide] | ≤ 100 nM | 1000 to 10000 nM | > 10000 nM |
| Cc1cccc(C(=O)N[C@@H]2CCCN(c3cnc(C(N)=O)c(Nc4cc(C)ns4)n3)C2)c1 [Example A-33, 3-[(3-methyl-1,2-thiazol-5-yl)amino]-5-[(3R)-3-(3-methylbenzamido)piperidin-1-yl]pyrazine-2-carboxamide] | ≤ 100 nM | 1000 to 10000 nM | 100 to 1000 nM |
| Cc1cc(Nc2nc(N3CCC[C@@H](NC(=O)c4ccc(N(C)C)nc4)C3)cnc2C(N)=O)sn1 [Example A-34, 5-[(3R)-3-[6-(dimethylamino)pyridine-3-amido]piperidin-1-yl]-3-[(3-methyl-1,2-thiazol-5-yl)amino]pyrazine-2-carboxamide] | ≤ 100 nM | 1000 to 10000 nM | 1000 to 10000 nM |
| Cc1cc(Nc2nc(N3CCC[C@@H](NC(=O)c4ccc(F)cc4F)C3)cnc2C(N)=O)sn1 [Example A-36, 5-[(3R)-3-(2,4-difluorobenzamido)piperidin-1-yl]-3-[(3-methyl-1,2-thiazol-5-yl)amino]pyrazine-2-carboxamide] | ≤ 100 nM | > 10000 nM | > 10000 nM |
| CN(C)c1ccc(C(=O)N[C@@H]2CCCN(c3cnc(C(N)=O)c(Nc4ccc(S(C)(=O)=O)cc4)n3)C2)cc1 [Example A-44, 5-[(3R)-3-[4-(dimethylamino)benzamido]piperidin-1-yl]-3-[(4-methanesulfonylphenyl)amino]pyrazine-2-carboxamide] | ≤ 100 nM | 1000 to 10000 nM | > 10000 nM |
| NC(=O)c1ncc(N2CCC[C@@H](NC(=O)c3ccccc3)C2)nc1Nc1ccc2ncccc2c1 [Example A-45, 5-[(3R)-3-benzamidopiperidin-1-yl]-3-[(quinolin-6-yl)amino]pyrazine-2-carboxamide] | ≤ 100 nM | 1000 to 10000 nM | > 10000 nM |
| CN(C)c1ccc(C(=O)N[C@@H]2CCCN(c3cnc(C(N)=O)c(Nc4ccc5ncccc5c4)n3)C2)cc1 [Example A-46, 5-[(3R)-3-[4-(dimethylamino)benzamido]piperidin-1-yl]-3-[(quinolin-6-yl)amino]pyrazine-2-carboxamide hydrochloride] | ≤ 100 nM | 1000 to 10000 nM | > 10000 nM |
| CN(C)C(=O)N[C@@H]1CCCN(c2cnc(C(N)=O)c(Nc3ccc4ncccc4c3)n2)C1 [Example A-47, 5-[(3R)-3-[(dimethylcarbamoyl)amino]piperidin-1-yl]-3-[(quinolin-6-yl)amino]pyrazine-2-carboxamide] | ≤ 100 nM | 1000 to 10000 nM | > 10000 nM |
| CC1(c2ccc(Nc3nc(N4CCC[C@@H](NC(=O)c5ccccc5)C4)cnc3C(N)=O)cc2)CCN(C2CC2)CC1 [Example A-48, 5-[(3R)-3-benzamidopiperidin-1-yl]-3-{[4-(1-cyclopropyl-4-methylpiperidin-4-yl)phenyl]amino}pyrazine-2-carboxamide] | ≤ 100 nM | < 100 nM | < 100 nM |
| CN(C)c1ccc(C(=O)N[C@@H]2CCCN(c3cnc(C(N)=O)c(Nc4ccc(C5(C)CCN(C6CC6)CC5)cc4)n3)C2)cc1 [Example A-49, 3-{[4-(1-cyclopropyl-4-methylpiperidin-4-yl)phenyl]amino}-5-[(3R)-3-[4-(dimethylamino)benzamido]piperidin-1-yl]pyrazine-2-carboxamide] | ≤ 100 nM | 100 to 1000 nM | < 100 nM |

Other lines, results leading:

| IC50 (BTK-WT) | IC50 (JAK3) | IC50 (LCK) | Compound |
| --- | --- | --- | --- |
| ≤ 100 nM | > 10000 nM | 100 to 1000 nM | Cc1cc(Nc2nc(N3CCC[C@@H](NC(=O)c4ccc(F)cc4)C3)cnc2C(N)=O)sn1 [Example A-20, 5-[(3R)-3-(4-fluorobenzamido)piperidin-1-yl]-3-[(3-methyl-1,2-thiazol-5-yl)amino]pyrazine-2-carboxamide] |
| ≤ 100 nM | 100 to 1000 nM | > 10000 nM | Cc1cc(Nc2nc(N3CCC[C@@H](NC(=O)c4ccc(N(C)C)cc4)C3)cnc2C(N)=O)sn1 [Example A-21, 5-[(3R)-3-[4-(dimethylamino)benzamido]piperidin-1-yl]-3-[(3-methyl-1,2-thiazol-5-yl)amino]pyrazine-2-carboxamide] |
| ≤ 100 nM | 100 to 1000 nM | 100 to 1000 nM | Cc1cc(Nc2nc(N3CCC[C@@H](NC(=O)c4cccc(F)c4)C3)cnc2C(N)=O)sn1 [Example A-22, 5-[(3R)-3-(3-fluorobenzamido)piperidin-1-yl]-3-[(3-methyl-1,2-thiazol-5-yl)amino]pyrazine-2-carboxamide] |
| ≤ 100 nM | 100 to 1000 nM | 100 to 1000 nM | Cc1cc(Nc2nc(N3CCC[C@@H](NC(=O)c4ccccc4F)C3)cnc2C(N)=O)sn1 [Example A-23, 5-[(3R)-3-(2-fluorobenzamido)piperidin-1-yl]-3-[(3-methyl-1,2-thiazol-5-yl)amino]pyrazine-2-carboxamide] |
| ≤ 100 nM | > 10000 nM | > 10000 nM | Cc1ccc(C(=O)N[C@@H]2CCCN(c3cnc(C(N)=O)c(Nc4cc(C)ns4)n3)C2)c(F)c1 [Example A-24, 5-[(3R)-3-(2-fluoro-4-methylbenzamido)piperidin-1-yl]-3-[(3-methyl-1,2-thiazol-5-yl)amino]pyrazine-2-carboxamide] |
| ≤ 100 nM | 100 to 1000 nM | 100 to 1000 nM | Cc1cc(Nc2nc(N3CCC[C@@H](NC(=O)c4ccc(N)cc4)C3)cnc2C(N)=O)sn1 [Example A-25, 5-[(3R)-3-(4-aminobenzamido)piperidin-1-yl]-3-[(3-methyl-1,2-thiazol-5-yl)amino]pyrazine-2-carboxamide] |
| ≤ 100 nM | 1000 to 10000 nM | > 10000 nM | Cc1cc(Nc2nc(N3CCC[C@@H](NC(=O)c4ccc(N5CCCC5)cc4)C3)cnc2C(N)=O)sn1 [Example A-26, 3-[(3-methyl-1,2-thiazol-5-yl)amino]-5-[(3R)-3-[4-(pyrrolidin-1-yl)benzamido]piperidin-1-yl]pyrazine-2-carboxamide] |

From patent US20210070748A1, “INHIBITORS OF BRUTONS TYROSINE KINASE” (Pharmacyclics LLC, priority 2015, published 2021)
